Entries after “also recorded” stand apart in the source; their conditions may differ.
Key:
[1] = system: Norepinephrine (NE) reuptake in rat brain synaptosomes; test: Inhibition of rat synaptosomal uptake of 3H-norepinephrine; format: biochemical; settings: rat diencephalic-mid brain crude synaptosomes; 3H-NE 2×10^-8 M; Hill analysis
From the text: (§1) Male Wistar rats weighing approximately 180-200 g are decapitated and their brains rapidly removed and dissected according to the method of Glowinski and Iversen. Glowinski, J. and Iversen, L. L., Regional studies of catecholamines in the rat brain I. The disposition of 3H-norepinephrine, 3H-dopamine and 3H-DOPA in various regions of the brain. J. Neurochem. 13:655-669, 1966.
(§2) Striatal tissues are pooled from three rat brains for the uptake of 3H-dopamine (3H-DA) and diencephalic-mid brain areas were used for the uptake of 3H-norepinephrine (3H-NE) and 3H-serotonin (3H-5HT). The tissues are immediately weighed and homogenized with a teflon-glass pestle homogenizer in 10 volumes of ice cold 0.32 M sucrose. The homogenates are centrifuged at 4° C. at 900×g for 10 minutes to remove nuclear particles and cellular debris. The supernatants are carefully withdrawn and transferred into clean test tubes kept in ice. Aliquots of these preparations containing crude synaptic nerve endings are used in subsequent uptake studies.
(§3) Amine uptake in crude synaptosomes is determined by a method essentially the same as that described by Snyder and Coyle, Snyder, S. H. and Coyle, J. T. Regional differences in 3H-norepinephrine and 3H-dopamine uptake into rat brain homogenates. J. Pharmacol. Exp. Ther. 165:78-86, 1969. Briefly, a 0.1 ml aliquot of the above tissue preparation is added to test tubes containing 3.7 ml of Krebs-Ringer phosphate buffer pH 7.4 with glucose (2 mg/ml), calcium chloride 0.024%, ascorbic acid (0.2 mg/ml) and nialamide (1.24×10^-5M). 1-(3,4-Dichlorophenyl)-3-azabicyclo[3.1.0]hexane hydrochloride at varying concentrations (0.01-2.5 μM) is added in a 0.1 ml volume. The incubation mixtures are agitated at 37° C. for 10 minutes under an atmosphere of 95% oxygen and 5% CO2 in a Dubnoff metabolic shaker to ensure irreversible inhibition of monoamine oxidase (MAO). After this initial pre-incubation period, the tubes are returned to the ice bath. 3H-DA, 3H-NE or 3H-5HT is added in a 0.1 ml volume to give a final concentration of labeled amine of 2×10^-8 M, and the incubation at 37° C. is continued for an additional 4 min. A set of tubes serving as control (uptake at 0° C.) is left in an ice bath. After the final incubation period, the samples are cooled in ice and then centrifuged at 4° C. at 10,000×g. The supernatant fluid is gently poured off from each tube. The surface of the pellet of each sample is washed with 5 ml of ice cold 0.9% sodium chloride which is then aspirated off without disturbing the pellet. The pellet is resuspended in a cintillation fluid ad radioactivity was determined. Protein content in the tissue samples is determined by the method of Lowry et al. Lowry, O. H., Rosebrough, N. J., Farr, A. L. and Randall, R. J. Protein measurement with the folin reagent. J. Biol. Chem. 193:265, 1951. The concentration of drug which inhibits the uptake of the labeled amine by 50% is determined by Hill analysis of the data.

[2] = system: Serotonin (5-HT) reuptake in rat brain synaptosomes; test: Inhibition of rat synaptosomal uptake of 3H-serotonin; format: biochemical; settings: rat diencephalic-mid brain crude synaptosomes; 3H-5HT 2×10^-8 M; Hill analysis
From the text: as §1, §2, §3

[3] = system: Dopamine (DA) reuptake in rat brain synaptosomes; test: Inhibition of rat synaptosomal uptake of 3H-dopamine; format: biochemical; settings: rat striatal crude synaptosomes; 3H-DA 2×10^-8 M; Hill analysis
From the text: as §1
Striatal tissues are pooled from three rat brains for the uptake of 3H-dopamine (3H-DA) and diencephalic-mid brain areas were used for the uptake of 3H-norepinephrine (3H-NE) and 3H-serotonin (3H-5HT). The tissues are immediately weighed and homogenized with a teflon-glass pestle homogenizer in 10 volumes of ice cold 0.32 M sucrose. […]
Amine uptake in crude synaptosomes is determined by a method essentially the same as that described by Snyder and Coyle, Snyder, S. H. and Coyle, J. T. Regional differences in 3H-norepinephrine and 3H-dopamine uptake into rat brain homogenates. […] The pellet is resuspended in a cintillation fluid ad radioactivity was determined. Protein content in the tissue samples is determined by the method of Lowry et al. Lowry, O. H., Rosebrough, N. J., Farr, A. L. and Randall, R. J. Protein measurement with the folin reagent. […] The concentration of drug which inhibits the uptake of the labeled amine by 50% is determined by Hill analysis of the data.

Male Wistar rats [4] = test: Free-choice ethanol (6% v/v) vs tap water drinking, Part I; format: in vivo, rat; settings: 30 mg/kg i.p. 7 days, mean ± S.D.
Experimental: (§4) Male Wistar rats are presented with an everyday free-choice between a 6% (v/v) ethanol solution and tap water. Following a seven-day baseline period, which establishes a pattern of stable drinking, only those animals whose consumption is greater than 50% of their total fluid intake are given intraperitoneal injections of three drugs. In part I citalopram (positive control) a neuronal serotonin uptake inhibitor at a dose of 30 mg/kg, […], and 1-(3,4-dichlorophenyl)-3-azabicyclo[3.1.0]hexane hydrochloride, also a serotonin uptake inhibitor, at doses of 5, 10 and 20 mg/kg are given by intraperitoneal injection for seven days. In part II, animals are given intraperitoneal injections of diazepam at a dose of 10 mg/kg and again the positive control used is citalopram at 30 mg/kg. Treatment period for part II also is over a seven-day period. Following the seven-day treatment period, a post-treatment period which lasted for an additional seven days is conducted where the animals are presented with a free choice between ethanol and water in order to determine the rate of recovery of ethanol drinking. During baseline, drug treatment and post-treatment periods, ethanol consumption by the rats is calculated in terms of daily ethanol preference ratio (volume of ethanol per volume of total daily fluid intake) and in terms of daily absolute of ethanol ingested (g/kg body weight).
(§5) Two hundred (200) drug-naive male Wistar rats obtained from the Canadian Breeding Farm Laboratories in Charles River Canada are used. All animals weigh between 180-200 g at the beginning of the experiment.
(§6) All animals are individually housed in stainless steel cages, in a room regulated for constant temperature, humidity and a 12-hour light/dark cycle (7:00 a.m.-7:00 p.m.). Each cage is equipped with two calibrated glass Richter tubes to deliver the fluids (ethanol and water) to the animals. All animals are presented with a free choice between ethanol and tap water throughout the experiment. The drinking vessels are randomly reversed in order to avoid bias generated by a position preference in the animals. In addition, Purina Rat Chow is made available throughout the experiment on an ad libitum basis.
(§7) At approximately the same time every day, 1300 h, the volume in mls of ethanol and tap water consumed by each animal is recorded. All tubes are then removed from the cages, rinsed and refilled with the appropriate fluids, i.e., ethanol solution and tap water. Also, all animals are weighed and their corresponding body weights recorded. At this time, additional food is provided.
(§8) Drugs used in part I are dissolved in Ringers solution to form the required doses. Drugs used in part II are suspended in a vehicle which consists of a 2% pre-boiled starch solution containing 5% polyethylene glycol 400 and tween 80 (1 drop/10 ml vehicle). All drugs are administered intraperitoneally according to the schedule (see Treatment period).
Group 2--citalopram 30 mg/kg (n=10)
Group 3--1-(3,4-dichlorophenyl)-3-azabicyclo[3.1.0]hexane hydrochloride 5 mg/kg (n=10)
Group 4--1-(3,4-dichlorophenyl)-3-azabicyclo[3.1.0]hexane hydrochloride 10 mg/kg (n=10)
Group 5--1-(3,4-dichlorophenyl)-3-azabicyclo[3.1.0]hexane hydrochloride 20 mg/kg (n=10)
(§9) Post-treatment period:--Upon cessation of the drug treatment period, the animals are presented with a free choice between 6% ethanol and tap water for an additional 7 days in order to determine the rate of recovery of ethanol drinking.

Male Wistar rats [5] = test: Free-choice ethanol (6% v/v) vs tap water drinking, Part II; format: in vivo, rat; settings: for Ethanol Intake / Food Consumption / Ethanol Preference / Total Fluid Intake: mean ± S.D.
Experimental: as §4, §5, §6, §7, §8
Group 2--citalopram 30 mg/kg (n=7)
Group 3--diazepam 10 mg/kg (n=7)
as §9

[6] = Treatment period, listed as citalopram, 30 mg/kg
[7] = 30 mg/kg i.p. 7 days, Baseline period
[8] = 30 mg/kg i.p. 7 days, Baseline period, 30 mg/kg
[9] = 30 mg/kg i.p. 7 days, Baseline period, listed as citalopram, 30 mg/kg
[10] = 30 mg/kg i.p. 7 days, Post-Treatment period
[11] = 30 mg/kg i.p. 7 days, Treatment period, 30 mg/kg
[12] = 30 mg/kg i.p. 7 days, Treatment period, listed as citalopram, 30 mg/kg
[13] = 10 mg/kg i.p. 7 days, Baseline period
[14] = 10 mg/kg i.p. 7 days, Post-Treatment period
[15] = 10 mg/kg i.p. 7 days, Treatment period, 10 mg/kg
[16] = 10 mg/kg i.p. 7 days, Treatment period, listed as diazepam, 10 mg/kg

SMILES: c1ccc(C23CNCC2C3)cc1 (racemic) [±H H]
- IC50 [1]: 401 nM
- IC50 [2]: 470 nM

SMILES: Cc1ccc(C23CNCC2C3)cc1 (racemic) [±H p-CH3]
- IC50 [1]: 741 nM
- IC50 [2]: 137 nM
- IC50 [3]: 2360 nM

SMILES: Fc1ccc(C23CNCC2C3)cc1 (racemic) [±H p-F]
- IC50 [2]: 811 nM

SMILES: COc1ccc(C23CNCC2C3)cc1Br (racemic) [±H 3-Br-4-OCH3]
- IC50 [1]: 318 nM
- IC50 [2]: 260 nM

SMILES: CN(C)CCCC1(c2ccc(F)cc2)OCc2cc(C#N)ccc21 (stereo not shown) [Citalopram]
- Ethanol Intake (Male Wistar rats [4]; Baseline period): 4.49 ± 1.18 g/kg body weight
- Ethanol Preference (Male Wistar rats [4]; Baseline period): 75.78 ± 18.09%
- Food Consumption (Male Wistar rats [4]; Baseline period): 20.14 ± 1.71 g/day
- Total Fluid Intake (Male Wistar rats [4]; Baseline period): 5.1746 ± 0.5146 mL/h/kg
- Ethanol Intake (Male Wistar rats [4]; Post-Treatment period): 3.32 ± 1.86 g/kg body weight
- Ethanol Preference (Male Wistar rats [4]; Post-Treatment period): 57.81 ± 32.23%
- Food Consumption (Male Wistar rats [4]; Post-Treatment period): 21.47 ± 1.94 g/day
- Total Fluid Intake (Male Wistar rats [4]; Post-Treatment period): 5.0612 ± 0.6242 mL/h/kg
- Ethanol Intake (Male Wistar rats [4]; Treatment period): 2.34 ± 1.44 g/kg body weight
- Ethanol Preference (Male Wistar rats [4]; Treatment period, 30 mg/kg): 61.06 ± 35.09%
- Food Consumption (Male Wistar rats [4]; Treatment period, 30 mg/kg): 11.96 ± 3.56 g/day
- Total Fluid Intake (Male Wistar rats [4]; Treatment period, 30 mg/kg): 3.446 ± 0.394 mL/h/kg
- Ethanol Preference (Male Wistar rats [4]; [6]): slight but insignificant decrease in ethanol preference
- Food Consumption (Male Wistar rats [4]; [6]): significant decrease in food consumption
- Total Fluid Intake (Male Wistar rats [4]; [6]): 3.446 mL/h/kg
- Ethanol Intake (Male Wistar rats [5]; [7]): 4.86 ± 1.09 g/kg body weight
- Food Consumption (Male Wistar rats [5]; [7]): 19.82 ± 1.87 g/day
- Ethanol Preference (Male Wistar rats [5]; [8]): 86.16 ± 14.74%
- Total Fluid Intake (Male Wistar rats [5]; [8]): 4.9042 ± 0.4583 mL/h/kg
- Ethanol Preference (Male Wistar rats [5]; [9]): 86.16%
- Total Fluid Intake (Male Wistar rats [5]; [9]): 4.9042 mL/h/kg
- Ethanol Intake (Male Wistar rats [5]; [10]): 3.87 ± 1.91 g/kg body weight
- Ethanol Preference (Male Wistar rats [5]; [10]): 68.90%
- Food Consumption (Male Wistar rats [5]; [10]): 19.86 g/day
- Total Fluid Intake (Male Wistar rats [5]; [10]): 4.7558 mL/h/kg
- Ethanol Intake (Male Wistar rats [5]; [11]): 2.95 ± 1.59 g/kg body weight
- Ethanol Preference (Male Wistar rats [5]; [11]): 69.17 ± 30.25%
- Food Consumption (Male Wistar rats [5]; [11]): 14.20 ± 2.76 g/day
- Total Fluid Intake (Male Wistar rats [5]; [11]): 3.616 ± 0.5479 mL/h/kg
- Ethanol Intake (Male Wistar rats [5]; [12]): partial effect
- Ethanol Preference (Male Wistar rats [5]; [12]): 69.17%
- Food Consumption (Male Wistar rats [5]; [12]): 14.20 g/day
- Total Fluid Intake (Male Wistar rats [5]; [12]): 3.616 mL/h/kg
- Food intake lower than baseline level during treatment (Male Wistar rats [5]; 30 mg/kg i.p. 7 days, Treatment vs baseline): approximately 25%

SMILES: Clc1ccc(C23CNCC2C3)cc1 (racemic) [±H p-Cl]
- IC50 [1]: 274 nM
- IC50 [2]: 169 nM

SMILES: Clc1ccc(C23CNCC2C3)cc1 (single isomer, unassigned) [+H p-Cl]
- IC50 [1]: 279 nM
- IC50 [2]: 55 nM

SMILES: CN1C(=O)CN=C(c2ccccc2)c2cc(Cl)ccc21 [Diazepam]
- Ethanol Intake (Male Wistar rats [5]; [13]): 3.92 ± 1.75 g/kg body weight
- Ethanol Preference (Male Wistar rats [5]; [13]): 73.21 ± 26.62%
- Food Consumption (Male Wistar rats [5]; [13]): 21.24 ± 1.94 g/day
- Total Fluid Intake (Male Wistar rats [5]; [13]): 4.6321 ± 0.4679 mL/h/kg
- Ethanol Intake (Male Wistar rats [5]; [14]): 3.95 ± 1.91 g/kg body weight
- Ethanol Preference (Male Wistar rats [5]; [14]): 72.15%
- Food Consumption (Male Wistar rats [5]; [14]): 20.98 g/day
- Total Fluid Intake (Male Wistar rats [5]; [14]): 4.6487 mL/h/kg
- Ethanol Intake (Male Wistar rats [5]; [15]): 3.48 ± 1.51 g/kg body weight
- Ethanol Preference (Male Wistar rats [5]; [15]): 72.76 ± 28.03%
- Food Consumption (Male Wistar rats [5]; [15]): 20.75 ± 2.04 g/day
- Total Fluid Intake (Male Wistar rats [5]; [15]): 4.126 ± 0.369 mL/h/kg
- Ethanol Intake (Male Wistar rats [5]; [16]): no effect on ethanol intake; also recorded: no effect to attenuate voluntary ethanol consumption
- Ethanol Preference (Male Wistar rats [5]; [16]): virtually no change
- Food Consumption (Male Wistar rats [5]; [16]): no effect on food intake
- Total Fluid Intake (Male Wistar rats [5]; [16]): does not affect total fluid intake

SMILES: Cc1ccc(C23CNCC2C3)cc1 (single isomer, unassigned) [+H p-CH3]
- IC50 [1]: 215 nM
- IC50 [2]: 96 nM

From patent publication US6204284A, “Use of 1-(substitutedphenyl)-3-azabicyclo[3.1.0]hexanes for the treatment of chemical dependencies” (priority 1995, dated 2001)
